Experiments:
[1] = Steady-state PK in KPC mice fed metarrestin-infused chow; type: in vivo; conditions: 25 mg/kg PO chow MD
Description: Metarrestin [ML-246; Trans-4-(7-benzyl-4-imino-5,6-diphenyl-4,7-dihydro-3H-pyrrolo[2,3-d]pyrimidin-3-yl) cyclohexanol] was manufactured in-house using the previously described 4-step synthesis sequence. Purity (> 98%) was determined by LC-MS/MS and 1H-NMR analysis as previously reported. To enhance bioavailability, the drug was micronized to particles of uniform small size with greater surface area using a technique proprietary to Crititech Inc. (Lawrence, Kansas). In brief, the drug substance was dissolved in organic solvent dichloromethane and precipitated using compressed super critical carbon dioxide as the anti-solvent. The produced material had 90% particles with a diameter less than 1.131 µm with a mean diameter of 0.829 µm (Suppl. Figure 1). […]
An ultra-performance liquid chromatography–tandem mass spectrometry (UPLC–MS/MS) method was developed to determine metarrestin concentrations in plasma and tissue samples. […] Data were analyzed using MassLynx V4.1.
The pharmacokinetic parameters were calculated using the non-compartmental approach (Models 200 and 201) of the pharmacokinetic software Phoenix WinNonlin, version 6.4 (Certara, St. Louis, MO). The area under the plasma concentration vs time curve (AUC) was calculated using the linear trapezoidal method. […]

KPC and PC3M cells = experiment: UPLC–MS/MS measurement of cellular metarrestin concentration; type: cell-based; conditions: 1 and 10 µM, within 40 min

## N=c1c2c(-c3ccccc3)c(-c3ccccc3)n(Cc3ccccc3)c2ncn1[C@H]1CC[C@H](O)CC1 [metarrestin, Trans-4-(7-benzyl-4-imino-5,6-diphenyl-4,7-dihydro-3H-pyrrolo[2,3-d]pyrimidin-3-yl) cyclohexanol]
[1]
  intratumor AUC0–24h: 396,000 h ng/mL
KPC and PC3M cells
  cellular levels, % of media concentrations: 40–100%
